Our source for the IC50 and EC50 values is ChEMBL document CHEMBL2346513, “Synthesis and evaluation of methylsulfonylnitrobenzamides (MSNBAs) as inhibitors of the thyroid hormone receptor-coactivator interaction” (Bioorg Med Chem Lett, 2013).

Assay [1] addresses T1, Thyroid hormone receptor beta (Homo sapiens, UniProt P10828).
T1 sequence (P10828 whole entry): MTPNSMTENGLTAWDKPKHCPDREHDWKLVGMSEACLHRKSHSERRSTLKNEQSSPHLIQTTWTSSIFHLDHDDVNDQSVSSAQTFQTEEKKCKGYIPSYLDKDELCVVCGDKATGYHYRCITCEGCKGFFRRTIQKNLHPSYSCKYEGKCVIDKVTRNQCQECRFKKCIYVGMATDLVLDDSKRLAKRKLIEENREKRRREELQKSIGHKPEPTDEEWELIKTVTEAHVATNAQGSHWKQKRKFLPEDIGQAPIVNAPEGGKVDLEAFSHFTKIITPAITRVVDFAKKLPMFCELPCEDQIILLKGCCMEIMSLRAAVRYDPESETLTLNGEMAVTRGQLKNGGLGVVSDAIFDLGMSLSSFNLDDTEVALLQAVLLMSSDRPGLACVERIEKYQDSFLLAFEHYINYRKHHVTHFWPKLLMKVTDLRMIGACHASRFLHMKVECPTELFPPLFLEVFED
As to the kind of experiment: Inhibition of TRbeta-LBD (unknown origin) interaction to texas red-labeled SRC2-2 peptide by fluorescence polarization assay. (In general: Fluorescence polarisation rises when a labelled molecule tumbles more slowly, as on binding a larger partner.)

The target of another assay is T2, Vitamin D3 receptor (Homo sapiens, UniProt P11473).
T2 sequence (P11473 whole entry): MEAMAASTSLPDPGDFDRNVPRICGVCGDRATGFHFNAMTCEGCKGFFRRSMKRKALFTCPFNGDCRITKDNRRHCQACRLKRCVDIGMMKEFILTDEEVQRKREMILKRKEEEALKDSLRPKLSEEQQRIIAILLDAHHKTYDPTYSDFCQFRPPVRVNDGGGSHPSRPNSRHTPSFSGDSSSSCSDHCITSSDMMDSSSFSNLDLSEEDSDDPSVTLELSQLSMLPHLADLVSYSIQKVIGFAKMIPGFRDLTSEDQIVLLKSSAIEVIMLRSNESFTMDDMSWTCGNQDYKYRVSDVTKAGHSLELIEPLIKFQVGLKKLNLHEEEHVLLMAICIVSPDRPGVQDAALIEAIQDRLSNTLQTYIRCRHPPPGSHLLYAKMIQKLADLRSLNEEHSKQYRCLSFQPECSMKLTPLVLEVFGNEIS
The assay can be described thus: Inhibition of VDR (unknown origin) interaction to SRC2-3 peptide by fluorescence polarization assay.

The subject of the next assay is HepG2. As to the kind of experiment: Cytotoxicity against human HepG2 cells assessed as ATP level after 72 hrs by CellTiter-Glo assay. It is filed as cell-based. The note with it: HepG2, 72 h. A general note: Cellular ATP, detected with luciferase, serves as a proxy for viable cell number.
The target in assay [2] is T3, Thyroid hormone receptor alpha (Homo sapiens, UniProt P10827).
T3 sequence (P10827 whole entry): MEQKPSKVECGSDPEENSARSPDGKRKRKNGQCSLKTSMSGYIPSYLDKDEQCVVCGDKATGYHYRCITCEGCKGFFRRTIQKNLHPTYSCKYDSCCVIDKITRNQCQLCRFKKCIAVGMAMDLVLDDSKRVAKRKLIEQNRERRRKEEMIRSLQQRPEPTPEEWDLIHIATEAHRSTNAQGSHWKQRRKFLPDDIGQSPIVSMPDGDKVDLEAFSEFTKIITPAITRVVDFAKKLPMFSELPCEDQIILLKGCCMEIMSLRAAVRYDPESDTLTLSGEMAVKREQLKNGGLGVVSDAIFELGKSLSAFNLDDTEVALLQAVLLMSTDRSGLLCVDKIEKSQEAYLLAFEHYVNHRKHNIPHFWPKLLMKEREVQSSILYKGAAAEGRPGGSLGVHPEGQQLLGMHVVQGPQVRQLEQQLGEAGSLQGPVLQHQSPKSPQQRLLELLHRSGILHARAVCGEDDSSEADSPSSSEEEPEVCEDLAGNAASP
As to the kind of experiment: Inhibition of TRalpha-LBD (unknown origin) interaction to texas red-labeled SRC2-2 peptide by fluorescence polarization assay.

Broadly, the IC50 is the concentration that inhibits the measured activity by half. One may read the EC50 as the concentration that produces a half-maximal response. In the case of `CN(CC(=O)N(Cc1ccccc1)Cc1ccccc1)C(=O)c1ccc(S(C)(=O)=O)c([N+](=O)[O-])c1`, the IC50 (in assay [1]; against Vitamin D3 receptor; in assay [2]) was above 60 µM each time. Also, the EC50 with HepG2 was above 27 µM.
For the molecule `CN(Cc1ccccc1F)C(=O)C1CCN(C(=O)c2ccc(S(C)(=O)=O)c([N+](=O)[O-])c2)CC1`, the IC50 (in assay [1]; at Vitamin D3 receptor; in assay [2]) was above 60 µM in each case. In addition, the EC50 in the assay with HepG2 is above 27 µM.
For the molecule `CS(=O)(=O)c1ccc(C(=O)NCCC(=O)NC23CC4CC(CC(C4)C2)C3)cc1[N+](=O)[O-]`, the IC50 in assay [1] was determined as 31 µM; on Vitamin D3 receptor, 44 µM; in assay [2], 25 µM. Besides, the EC50 with HepG2 was above 27 µM.
For `CS(=O)(=O)c1ccc(C(=O)NCCCC(=O)N2CCC(c3ccccc3)CC2)cc1[N+](=O)[O-]`, in that order: above 60 µM, above 60 µM, above 60 µM and above 27 µM.
For `CN(CC(=O)N1CCN(c2ccccc2)CC1)C(=O)c1ccc(S(C)(=O)=O)c([N+](=O)[O-])c1`, in that order: above 60 µM, above 60 µM, above 60 µM and above 27 µM.
For `CCCN(C(=O)CN(C)C(=O)c1ccc(S(C)(=O)=O)c([N+](=O)[O-])c1)c1ccccc1`, in that order: above 60 µM, above 60 µM, above 60 µM and above 27 µM.
As to `CS(=O)(=O)c1ccc(C(=O)NCCCC(=O)N2CCc3ccccc3C2)cc1[N+](=O)[O-]`, the IC50 (in assay [1]; against Vitamin D3 receptor; in assay [2]) was above 60 µM each time. Further, the EC50 in the assay with HepG2 was above 27 µM.
As for `CS(=O)(=O)c1ccc(C(=O)NCC(=O)N2CCC(c3ccccc3)CC2)cc1[N+](=O)[O-]`, the figures for the IC50 (in assay [1]; on Vitamin D3 receptor; in assay [2]) were above 60 µM, 37 µM and 44 µM, respectively. The EC50 in the assay on HepG2 is above 27 µM.
For `CS(=O)(=O)c1ccc(C(=O)NCCC(=O)N2CCc3ccccc32)cc1[N+](=O)[O-]`, in that order: above 60 µM, above 60 µM, above 60 µM and above 27 µM.
For `CCCN(C(=O)CCCNC(=O)c1ccc(S(C)(=O)=O)c([N+](=O)[O-])c1)c1ccccc1`, the IC50 (in assay [1]; against Vitamin D3 receptor; in assay [2]) was above 60 µM in each case. Also, the EC50 in the assay on HepG2 is above 27 µM.
As to `CS(=O)(=O)c1ccc(C(=O)NCC(=O)N2CCN(c3ccc(F)cc3)CC2)cc1[N+](=O)[O-]`, the IC50 in assay [1] was above 60 µM; on Vitamin D3 receptor, 51 µM; in assay [2], 58 µM. For the same molecule, the EC50 with HepG2 is 12.9 µM.
On to `CN(Cc1ccccc1)C(=O)CNC(=O)c1ccc(S(C)(=O)=O)c([N+](=O)[O-])c1`, for which the IC50 is 39 µM in assay [1], above 60 µM on Vitamin D3 receptor and above 60 µM in assay [2]. Moreover, the EC50 with HepG2 was above 27 µM.
On to `CN(C(=O)CCNC(=O)c1ccc(S(C)(=O)=O)c([N+](=O)[O-])c1)c1ccccc1`, for which the concentration for half-maximal inhibition (IC50) in assay [1] is above 60 µM; at Vitamin D3 receptor it was above 60 µM; in assay [2], 37 µM. For the same molecule, in the assay on HepG2, the EC50 was above 27 µM.
Consider `CS(=O)(=O)c1ccc(C(=O)NCCCC(=O)N2Cc3ccccc3C2)cc1[N+](=O)[O-]`, for which the IC50 (in assay [1]; at Vitamin D3 receptor; in assay [2]) was above 60 µM in each case. In the assay with HepG2, the EC50 is above 27 µM.
For the molecule `CC1CCN(C(=O)CNC(=O)c2ccc(S(C)(=O)=O)c([N+](=O)[O-])c2)CC1`, the IC50 is 38 µM in assay [1], above 60 µM at Vitamin D3 receptor and 33 µM in assay [2]. In addition, the EC50 in the assay with HepG2 is above 27 µM.
Consider `CS(=O)(=O)c1ccc(C(=O)NCC(=O)N2CCN(c3ccccc3F)CC2)cc1[N+](=O)[O-]`, for which the IC50 (in assay [1]; at Vitamin D3 receptor; in assay [2]) was above 60 µM throughout. Besides, the EC50 in the assay with HepG2 was above 27 µM.
As to `CCCN(C(=O)CNC(=O)c1ccc(S(C)(=O)=O)c([N+](=O)[O-])c1)c1ccccc1`, the figures for the IC50 (in assay [1]; at Vitamin D3 receptor; in assay [2]) were 6.6 µM, above 60 µM and 1.9 µM, respectively. Besides, in the assay with HepG2, the EC50 is above 27 µM.
For the molecule `CN1CCN(C(=O)C2CCN(C(=O)c3ccc(S(C)(=O)=O)c([N+](=O)[O-])c3)CC2)CC1`, the IC50 (in assay [1]; on Vitamin D3 receptor; in assay [2]) was above 60 µM throughout. In addition, the EC50 in the assay on HepG2 was above 27 µM.
In the case of `CN(Cc1ccccc1F)C(=O)CCCNC(=O)c1ccc(S(C)(=O)=O)c([N+](=O)[O-])c1`, the IC50 (in assay [1]; on Vitamin D3 receptor; in assay [2]) was above 60 µM each time. For the same molecule, in the assay on HepG2, the EC50 is above 27 µM.
For the molecule `CS(=O)(=O)c1ccc(C(=O)NCCC(=O)N2CCN(c3ccc(C(F)(F)F)cc3)CC2)cc1[N+](=O)[O-]`, the IC50 (in assay [1]; at Vitamin D3 receptor; in assay [2]) was above 60 µM throughout. The EC50 in the assay on HepG2 is above 27 µM.
Take `CC1CCN(C(=O)CCCNC(=O)c2ccc(S(C)(=O)=O)c([N+](=O)[O-])c2)CC1`: the IC50 (in assay [1]; against Vitamin D3 receptor; in assay [2]) was above 60 µM each time. Further, in the assay with HepG2, the EC50 is above 27 µM.
For the molecule `CC(C)N(C(=O)CCNC(=O)c1ccc(S(C)(=O)=O)c([N+](=O)[O-])c1)C(C)C`, the IC50 (in assay [1]; at Vitamin D3 receptor; in assay [2]) was above 60 µM in each case. Further, the EC50 in the assay on HepG2 is above 27 µM.
Turning to `Cc1ccc(N2CCN(C(=O)CN(C)C(=O)c3ccc(S(C)(=O)=O)c([N+](=O)[O-])c3)CC2)cc1`, the IC50 (in assay [1]; at Vitamin D3 receptor; in assay [2]) was above 60 µM throughout. The EC50 in the assay on HepG2 was above 27 µM.
For the molecule `CS(=O)(=O)c1ccc(C(=O)NCCCC(=O)N2CCN(c3ccc(F)cc3)CC2)cc1[N+](=O)[O-]`, the IC50 was above 60 µM in assay [1], 65 µM on Vitamin D3 receptor and above 60 µM in assay [2]. For the same molecule, in the assay with HepG2, the EC50 is above 27 µM.
As for `CN1CCN(C(=O)CNC(=O)c2ccc(S(C)(=O)=O)c([N+](=O)[O-])c2)CC1`, the IC50 (in assay [1]; on Vitamin D3 receptor; in assay [2]) was above 60 µM each time. Also, the 50% effective concentration (EC50) in the assay on HepG2 is above 27 µM.
`CC(C)N(C(=O)C1CCN(C(=O)c2ccc(S(C)(=O)=O)c([N+](=O)[O-])c2)CC1)C(C)C`: the IC50 (in assay [1]; against Vitamin D3 receptor; in assay [2]) was above 60 µM each time. In addition, the EC50 with HepG2 was above 27 µM.
Regarding `CN(Cc1cccc(F)c1)C(=O)CCCNC(=O)c1ccc(S(C)(=O)=O)c([N+](=O)[O-])c1`, the IC50 (in assay [1]; against Vitamin D3 receptor; in assay [2]) was above 60 µM in each case. For the same molecule, the EC50 in the assay with HepG2 is above 27 µM.
Regarding `CS(=O)(=O)c1ccc(C(=O)NCCCC(=O)NC23CC4CC(CC(C4)C2)C3)cc1[N+](=O)[O-]`, the figures for the IC50 (in assay [1]; at Vitamin D3 receptor; in assay [2]) were 10.6 µM, above 60 µM and above 60 µM, respectively. In addition, in the assay on HepG2, the EC50 is above 27 µM.
As to `CS(=O)(=O)c1ccc(C(=O)N2CCC(C(=O)N3CCc4ccccc4C3)CC2)cc1[N+](=O)[O-]`, the IC50 (in assay [1]; against Vitamin D3 receptor; in assay [2]) was above 60 µM each time. Further, the EC50 in the assay with HepG2 was above 27 µM.
`CS(=O)(=O)c1ccc(C(=O)NCCC(=O)N2CCN(c3ccccc3F)CC2)cc1[N+](=O)[O-]`: the IC50 was above 60 µM in assay [1], 66 µM on Vitamin D3 receptor and above 60 µM in assay [2]. Besides, in the assay on HepG2, the EC50 is above 27 µM.
Take `CS(=O)(=O)c1ccc(C(=O)NCC(=O)N(Cc2ccccc2)c2ccccc2)cc1[N+](=O)[O-]`: the IC50 in assay [1] was 20 µM; against Vitamin D3 receptor it was above 60 µM; in assay [2], above 60 µM. Besides, the EC50 with HepG2 was above 27 µM.
